Where “and” joins values, the source holds several entries; their conditions need not be identical. Equal values may be shown once. Read-outs that look alike come from different tables or passages of the source.
Experiments:
[1] = system: CAKI-1 renal cancer cells; experiment: cells; conditions: Homo sapiens
[2] = system: SK-OV-3 ovarian cancer cells; experiment: cells; conditions: Homo sapiens
tubulin = experiment: Binding to tubulin
[3] = system: OVCAR-8 ovarian cancer cells
[4] = system: HOP-92 non-small cell lung cancer cells
[5] = system: HS 578T breast cancer cells; experiment: cells; conditions: Homo sapiens
[6] = system: CAKI-1 renal cancer cells
[7] = system: OVCAR-3 ovarian cancer cells; experiment: cells; conditions: Homo sapiens
[8] = system: OVCAR-3 ovarian cancer cells
A498 renal cancer cells [9] = experiment: cells; conditions: Homo sapiens
[10] = system: HOP-62 non-small cell lung cancer cells; experiment: cells; conditions: Homo sapiens
[11] = system: RXF-393 renal cancer cells; experiment: cells; conditions: Homo sapiens
[12] = system: MCF7/ADR-RES breast cancer cells; experiment: cells; type: cell-based
[13] = system: HOP-62 non-small cell lung cancer cells
[14] = system: HS 578T breast cancer cells
SF-295 CNS cancer cells = experiment: cells; conditions: Homo sapiens
A498 renal cancer cells [15] = conditions: log10 conc -6.0; 1 µM
[16] = system: HOP-92 non-small cell lung cancer cells; experiment: cells; conditions: Homo sapiens

COc1cc2c(c(OC)c1OC)-c1ccc(C(C)=O)cc1C(NC(C)=O)CC2 (centres unmarked)
GI50 ([1]; CAKI-1): 40.1 nM | activity at 100 µM ([1]; CAKI-1, read-out: Percent Growth, log10 conc -4.0): 37% | activity at 10 µM ([1]; CAKI-1, read-out: Percent Growth, log10 conc -5.0): 39% | activity at 1 µM ([1]; CAKI-1, read-out: Percent Growth, log10 conc -6.0): 36% | activity at 0.1 µM ([1]; CAKI-1, read-out: Percent Growth, log10 conc -7.0): 35% | activity at 0.01 µM ([1]; CAKI-1, read-out: Percent Growth, log10 conc -8.0): 73% | activity at 100 µM ([2]; SK-OV-3, read-out: Percent Growth, log10 conc -4.0): 9% | activity at 10 µM ([2]; SK-OV-3, read-out: Percent Growth, log10 conc -5.0): 15% | activity at 1 µM ([2]; SK-OV-3, read-out: Percent Growth, log10 conc -6.0): 14% | activity at 0.1 µM ([2]; SK-OV-3, read-out: Percent Growth, log10 conc -7.0): 19% | activity at 0.01 µM ([2]; SK-OV-3, read-out: Percent Growth, log10 conc -8.0): 12% | activity at 0.001 µM ([2]; SK-OV-3, read-out: Percent Growth, log10 conc -9.0): 44% | activity at 0.0001 µM ([2]; SK-OV-3, read-out: Percent Growth, log10 conc -10.0): 95% | binding to tubulin (tubulin): reversible | Percent Growth (SF-268 CNS cancer cells; log10 conc -4.0, 100 µM): 32% | Percent Growth (SF-268 CNS cancer cells; log10 conc -5.0): 37% | Percent Growth (SF-268 CNS cancer cells; log10 conc -6.0, 1 µM): 36% and 38% | Percent Growth (SF-268 CNS cancer cells; log10 conc -7.0, 0.1 µM): 35% and 45% | Percent Growth (SF-268 CNS cancer cells; log10 conc -9.0, 0.001 µM): 40% | Percent Growth (SF-268 CNS cancer cells; log10 conc -10.0, 0.0001 µM): 92% | Percent Growth ([3]; log10 conc -4.0, 100 µM): -45% | Percent Growth ([3]; log10 conc -5.0): -29% | Percent Growth ([3]; log10 conc -6.0, 1 µM): 9% | Percent Growth ([3]; log10 conc -9.0, 0.001 µM): 25% | Percent Growth ([3]; log10 conc -10.0, 0.0001 µM): 96% | Percent Growth ([4]; log10 conc -6.0, 1 µM): 11% | Percent Growth ([4]; log10 conc -7.0, 0.1 µM): 24% and 45% | Percent Growth ([4]; log10 conc -8.0, 0.01 µM): 45% and 66% | Percent Growth (SNB-19 CNS cancer cells; log10 conc -4.0, 100 µM): 6% | Percent Growth (SNB-19 CNS cancer cells; log10 conc -5.0): 7% | Percent Growth (SNB-19 CNS cancer cells; log10 conc -6.0, 1 µM): 36% | Percent Growth (SNB-19 CNS cancer cells; log10 conc -8.0, 0.01 µM): 25% and 16% | Percent Growth (SNB-19 CNS cancer cells; log10 conc -9.0, 0.001 µM): 63% | Percent Growth (SNB-19 CNS cancer cells; log10 conc -10.0, 0.0001 µM): 99% | activity at 100 µM ([5]; read-out: Percent Growth, log10 conc -4.0): 16% | activity at 10 µM ([5]; read-out: Percent Growth, log10 conc -5.0): 27% | activity at 0.1 µM ([5]; read-out: Percent Growth, log10 conc -7.0): 38% | activity at 0.01 µM ([5]; read-out: Percent Growth, log10 conc -8.0): 39% | activity at 0.001 µM ([5]; read-out: Percent Growth, log10 conc -9.0): 27% | activity at 0.0001 µM ([5]; read-out: Percent Growth, log10 conc -10.0): 103% | TGI [6]: > 100 µM | activity at 100 µM ([7]; OVCAR-3, read-out: Percent Growth, log10 conc -4.0): 5% | activity at 10 µM ([7]; OVCAR-3, read-out: Percent Growth, log10 conc -5.0): 5% | activity at 0.001 µM ([7]; OVCAR-3, read-out: Percent Growth, log10 conc -9.0): -11% | activity at 0.0001 µM ([7]; OVCAR-3, read-out: Percent Growth, log10 conc -10.0): 97% | TGI [8]: > 100 µM | Percent Growth ([8]; log10 conc -6.0, 1 µM): 7% | Percent Growth ([8]; log10 conc -7.0, 0.1 µM): 15% | Percent Growth ([8]; log10 conc -8.0): 23% | Percent Growth (SF-539 CNS cancer cells; log10 conc -4.0, 100 µM): -27% | Percent Growth (SF-539 CNS cancer cells; log10 conc -5.0): -31% | Percent Growth (SF-539 CNS cancer cells; log10 conc -6.0, 1 µM): -24% | Percent Growth (SF-539 CNS cancer cells; log10 conc -7.0, 0.1 µM): -24% | Percent Growth (SF-539 CNS cancer cells; log10 conc -8.0): -16% | Percent Growth (SF-539 CNS cancer cells; log10 conc -9.0, 0.001 µM): 19% | Percent Growth (SF-539 CNS cancer cells; log10 conc -10.0, 0.0001 µM): 100% | activity at 100 µM (A498 renal cancer cells [9]; A498, read-out: Percent Growth, log10 conc -4.0): 1% | activity at 10 µM (A498 renal cancer cells [9]; A498, read-out: Percent Growth, log10 conc -5.0): 3% | activity at 0.001 µM (A498 renal cancer cells [9]; A498, read-out: Percent Growth, log10 conc -9.0): 72% | activity at 0.0001 µM (A498 renal cancer cells [9]; A498, read-out: Percent Growth, log10 conc -10.0): 77% | GI50 ([10]; HOP-62): 7.68 nM | activity at 100 µM ([10]; HOP-62, read-out: Percent Growth, log10 conc -4.0): 22% | activity at 10 µM ([10]; HOP-62, read-out: Percent Growth, log10 conc -5.0): 20% | activity at 1 µM ([10]; HOP-62, read-out: Percent Growth, log10 conc -6.0): 44% | activity at 0.1 µM ([10]; HOP-62, read-out: Percent Growth, log10 conc -7.0): 46% | activity at 0.01 µM ([10]; HOP-62, read-out: Percent Growth, log10 conc -8.0): 47% | activity at 0.001 µM ([10]; HOP-62, read-out: Percent Growth, log10 conc -9.0): 77% | activity at 0.0001 µM ([10]; HOP-62, read-out: Percent Growth, log10 conc -10.0): 101% | CC50 ([11]; RXF 393, read-out: LC50): > 1000 nM | activity at 1 µM ([11]; RXF 393, read-out: Percent Growth, log10 conc -6.0): 61% | activity at 0.1 µM ([11]; RXF 393, read-out: Percent Growth, log10 conc -7.0): 55% | activity at 0.01 µM ([11]; RXF 393, read-out: Percent Growth, log10 conc -8.0): 35% | activity at 0.001 µM ([11]; RXF 393, read-out: Percent Growth, log10 conc -9.0): 42% | activity at 0.0001 µM ([11]; RXF 393, read-out: Percent Growth, log10 conc -10.0): 101% | GI50 [12]: 23 nM | GI50 ([12]; Homo sapiens, MCF7): 21.1 nM | activity at 100 µM ([12]; Homo sapiens, MCF7, read-out: Percent Growth, log10 conc -4.0): -1% | activity at 10 µM ([12]; Homo sapiens, MCF7, read-out: Percent Growth, log10 conc -5.0): -1% | activity at 1 µM ([12]; Homo sapiens, MCF7, read-out: Percent Growth, log10 conc -6.0): 37% | activity at 0.01 µM ([12]; Homo sapiens, MCF7, read-out: Percent Growth, log10 conc -8.0): 56% | activity at 0.001 µM ([12]; Homo sapiens, MCF7, read-out: Percent Growth, log10 conc -9.0): 73% | activity at 0.0001 µM ([12]; Homo sapiens, MCF7, read-out: Percent Growth, log10 conc -10.0): 91% | GI50 [13]: < 10 nM | Percent Growth ([13]; log10 conc -6.0, 1 µM): 31% | Percent Growth ([13]; log10 conc -7.0, 0.1 µM): 29% | Percent Growth ([13]; log10 conc -8.0, 0.01 µM): 45% | Percent Growth ([14]; log10 conc -6.0, 1 µM): 25% | Percent Growth ([14]; log10 conc -8.0, 0.01 µM): 24% | activity at 100 µM (SF-295 CNS cancer cells; SF-295, read-out: Percent Growth, log10 conc -4.0): -14% | activity at 10 µM (SF-295 CNS cancer cells; SF-295, read-out: Percent Growth, log10 conc -5.0): -10% | activity at 0.01 µM (SF-295 CNS cancer cells; SF-295, read-out: Percent Growth, log10 conc -8.0): 6% | activity at 0.001 µM (SF-295 CNS cancer cells; SF-295, read-out: Percent Growth, log10 conc -9.0): 16% | activity at 0.0001 µM (SF-295 CNS cancer cells; SF-295, read-out: Percent Growth, log10 conc -10.0): 104% | Percent Growth (SNB-75 CNS cancer cells; log10 conc -4.0, 100 µM): 39% | Percent Growth (SNB-75 CNS cancer cells; log10 conc -5.0): 43% | Percent Growth (SNB-75 CNS cancer cells; log10 conc -6.0, 1 µM): 52% and 43% | Percent Growth (SNB-75 CNS cancer cells; log10 conc -7.0, 0.1 µM): 46% and 50% | Percent Growth (SNB-75 CNS cancer cells; log10 conc -8.0, 0.01 µM): 41% and 44% | Percent Growth (SNB-75 CNS cancer cells; log10 conc -9.0, 0.001 µM): 17% | Percent Growth (SNB-75 CNS cancer cells; log10 conc -10.0, 0.0001 µM): 96% | Percent Growth (MOLT-4 leukemia cells; log10 conc -4.0, 100 µM): -5% | Percent Growth (MOLT-4 leukemia cells; log10 conc -5.0): 5% | Percent Growth (MOLT-4 leukemia cells; log10 conc -6.0, 1 µM): 5% | Percent Growth (MOLT-4 leukemia cells; log10 conc -8.0): 34% | Percent Growth (MOLT-4 leukemia cells; log10 conc -9.0, 0.001 µM): 32% | Percent Growth (MOLT-4 leukemia cells; log10 conc -10.0, 0.0001 µM): 106% | Percent Growth (A498 renal cancer cells [15]): 25% | GI50 ([16]; HOP-92): 0.618 nM | activity at 100 µM ([16]; HOP-92, read-out: Percent Growth, log10 conc -4.0): 57% | activity at 10 µM ([16]; HOP-92, read-out: Percent Growth, log10 conc -5.0): 53% | activity at 0.001 µM ([16]; HOP-92, read-out: Percent Growth, log10 conc -9.0): 36% | activity at 0.0001 µM ([16]; HOP-92, read-out: Percent Growth, log10 conc -10.0): 94% | Percent Growth (U251 CNS cancer cells; log10 conc -4.0, 100 µM): 4% | Percent Growth (U251 CNS cancer cells; log10 conc -5.0): 3% | Percent Growth (U251 CNS cancer cells; log10 conc -9.0, 0.001 µM): 23% | Percent Growth (U251 CNS cancer cells; log10 conc -10.0, 0.0001 µM): 96%
